Patent publication US6610677B2, “Pyrazole compounds useful as protein kinase inhibitors” (Vertex Pharmaceuticals Incorporated, priority 2000, dated 2003)
pKi: −log10 of the molar value.

Each compound was assayed against T1, GSK-3β (AA 1-420) (Homo sapiens, UniProt P49841) (assay: Ki determination for the inhibition of GSK-3 (coupled enzyme system)). Details: 20 μM ATP, 300 μM peptide, 20 nM GSK-3β, 30° C.
T1 construct: GSK-3β (AA 1-420)
Format: biochemical
Procedure: Compounds were screened for their ability to inhibit GSK-3β (AA 1-420) activity using a standard coupled enzyme system (Fox et al. (1998) Protein Sci. 7, 2249). Reactions were carried out in a solution containing 100 mM HEPES (pH 7.5), 10 mM MgCl2, 25 mM NaCl, 300 μM NADH, 1 mM DTT and 1.5% DMSO. Final substrate concentrations in the assay were 20 μM ATP (Sigma Chemicals, St Louis, Mo.) and 300 μM peptide (HSSPHQS(PO3H2)EDEEE, American Peptide, Sunnyvale, Calif.). Reactions were carried out at 30° C. and 20 nM GSK-3β. Final concentrations of the components of the coupled enzyme system were 2.5 mM phosphoenolpyruvate, 300 μM NADH, 30 μg/ml pyruvate kinase and 10 μg/ml lactate dehydrogenase.
An assay stock buffer solution was prepared containing all of the reagents listed above with the exception of ATP and the test compound of interest. The assay stock buffer solution (175 μl) was incubated in a 96 well plate with 5 μl of the test compound of interest at final concentrations spanning 0.002 μM to 30 μM at 30° C. for 10 min. Typically, a 12 point titration was conducted by preparing serial dilutions (from 10 mM compound stocks) with DMSO of the test compounds in daughter plates. The reaction was initiated by the addition of 20 μl of ATP (final concentration 20 μM). Rates of reaction were obtained using a Molecular Devices Spectramax plate reader (Sunnyvale, Calif.) over 10 min at 30° C. The Ki values were determined from the rate data as a function of inhibitor concentration.

T1 sequence (P49841 whole entry, the tested form may be a part): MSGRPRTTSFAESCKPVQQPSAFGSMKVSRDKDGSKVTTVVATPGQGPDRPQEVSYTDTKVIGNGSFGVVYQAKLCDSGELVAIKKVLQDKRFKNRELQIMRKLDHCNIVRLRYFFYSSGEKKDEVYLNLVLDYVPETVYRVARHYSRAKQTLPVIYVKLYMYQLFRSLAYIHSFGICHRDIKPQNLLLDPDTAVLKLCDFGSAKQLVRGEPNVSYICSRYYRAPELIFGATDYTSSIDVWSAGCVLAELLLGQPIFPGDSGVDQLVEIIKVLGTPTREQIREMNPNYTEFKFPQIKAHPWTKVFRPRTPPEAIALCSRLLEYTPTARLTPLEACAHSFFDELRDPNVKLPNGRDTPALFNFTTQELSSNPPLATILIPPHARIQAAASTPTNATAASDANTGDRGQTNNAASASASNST

pKi	Structure (SMILES)
4.70 to 6.00	CC1CN(c2nc(Nc3[nH]nc4ccccc34)c3ccccc3n2)CC(C)O1 (centres unmarked) [III-145, (1H-Indazol-3-yl)-[2-(2,6-dimethyl-morpholin-4-yl)-quinazolin-4-yl]-amine]
> 7.00	Fc1cccc2c(Nc3nc(-c4ccccc4C(F)(F)F)nc4c3CCC4)n[nH]c12 [II-114, (7-Fluoro-1H-indazol-3-yl)-[2-(2-trifluoromethyl-phenyl)-6,7-dihydro-5H-cyclopentapyrimidin-4-yl]-amine]
> 7.00	Cc1nc(-c2ccccc2Cl)nc(Nc2n[nH]c3ccc(F)cc23)c1C [II-31, [2-(2-Chlorophenyl)-5,6-dimethyl-pyrimidin-4-yl]-(5-fluoro-1H-indazol-3-yl)-amine]
4.70 to 6.00	c1ccc(-c2cc(Nc3nc[nH]n3)c3ccccc3n2)cc1 [IX-176, (2-Phenyl-quinolin-4-yl)-(1H-[1,2,4]triazol-3-yl)-amine]
> 7.00	Clc1ccccc1-c1nc2c(c(Nc3n[nH]c4ccccc34)n1)CCC2 [II-116, [2-(2-Chloro-phenyl)-6,7-dihydro-5H-cyclopentapyrimidin-4-yl]-(1H-indazol-3-yl)-amine]
6.00 to 7.00	Cc1cc(Nc2nc(-c3ccc4c(c3)OCO4)nc3ccccc23)[nH]n1 [III-43, (2-Benzo[1,3]dioxol-5-yl-quinazolin-4-yl)-(5-methyl-2H-pyrazol-3-yl)-amine]
> 7.00	Fc1ccc2[nH]nc(Nc3nc(-c4ccccc4C(F)(F)F)nc4c3CCN(Cc3ccccc3)C4)c2c1 [II-18]
> 7.00	FC(F)(F)c1ccccc1-c1nc2c(c(Nc3n[nH]c4ccccc34)n1)CCCC2 [II-17, (1H-indazol-3-yl)-[2-(2-trifluoromethyl-phenyl)-5,6,7,8-tetrahydroquinazolin-4-yl]-amine]
> 7.00	Fc1ccc2[nH]nc(Nc3nc(-c4ccccc4C(F)(F)F)nc4c3CN(Cc3ccccc3)CC4)c2c1 [II-12, (6-Benzyl-2-(2-trifluoromethyl-phenyl)-5,6,7,8-tetrahydro-pyrido[4,3-d]pyrimidin-4-yl)-(5-fluoro-1H-indazol-3-yl)-amine]
4.70 to 6.00	Cc1cc(Nc2nc(-c3ccccc3-c3ccccc3)nc3ccccc23)n[nH]1 [II-43, (2-Biphenyl-2-yl-quinazolin-4-yl)-(5-methyl-2H-pyrazol-3-yl)-amine]
6.00 to 7.00	FC(F)(F)c1ccccc1-c1cc(Nc2n[nH]c3ccccc23)c2ccccc2n1 [Compound V-7, (1H-Indazol-3-yl)-[2-(2-trifluoromethyl-phenyl)-quinolin-4-yl]-amine]
6.00 to 7.00	O=c1cc2[nH]nc(Nc3nc(-c4ccccc4)nc4ccccc34)c2nn1-c1ccc(Cl)cc1 [III-140, [5-(4-Chloro-phenyl)-6-oxo-5,6-dihydro-1H-pyrazolo[4,3-c]pyridazin-3-yl]-(2-phenyl-quinazolin-4-yl)-amine]
6.00 to 7.00	Cc1nccn1-c1nc(Nc2[nH]nc3ccccc23)c2ccccc2n1 [III-142]
> 7.00	FC(F)(F)c1ccccc1-c1nc(Nc2cc(-c3cccs3)[nH]n2)c2ccccc2n1 [II-46, [5-(Thiophen-2-yl)-2H-pyrazol-3-yl]-[2-(2-trifluoromethylphenyl)-quinazolin-4-yl]-amine]
> 7.00	Fc1cc(F)c2[nH]nc(Nc3nc(-c4ccc(C(F)(F)F)cc4C(F)(F)F)nc4ccccc34)c2c1 [II-83, [2-(2,4-Bis-trifluoromethyl-phenyl)-quinazolin-4-yl]-(5,7-difluoro-1H-indazol-3-yl)-amine]
6.00 to 7.00	COc1ccc(-n2nc3c(Nc4nc(-c5ccccc5)nc5ccccc45)n[nH]c3cc2=O)cc1 [III-136, [5-(4-Methoxy-phenyl)-6-oxo-5,6-dihydro-1H-pyrazolo[4,3-c]pyridazin-3-yl]-(2-phenyl-quinazolin-4-yl)-amine]
> 7.00	Cc1nc(-c2ccccc2C(F)(F)F)nc(Nc2n[nH]c3c(F)cc(F)cc23)c1C [II-28, (5,7-Difluoro-1H-indazol-3-yl)-[5,6-Dimethyl-2-(2-trifluoromethyl-phenyl)-pyrimidin-4-yl]-amine]
> 7.00	FC(F)(F)c1ccccc1-c1nc(Nc2n[nH]c3ccccc23)c2cccnc2n1 [II-108, (1H-Indazol-3-yl)-[2-(2-trifluoromethyl-phenyl)-pyrido[2,3-d]pyrimidin-4-yl]-amine]
4.70 to 6.00	COCCNC(=O)c1cc(Nc2nc(-c3ccccc3)nc3ccccc23)[nH]n1 [III-83]

pKi	Structure (SMILES)
> 7.00	Cc1nc(-c2ccccc2Cl)nc(Nc2n[nH]c3c(F)cccc23)c1C [II-30, [2-(2-Chlorophenyl)-5,6-dimethyl-pyrimidin-4-yl]-(7-fluoro-1H-indazol-3-yl)-amine]
6.00 to 7.00	O=c1cc2[nH]nc(Nc3nc(-c4ccccc4)nc4ccccc34)c2nn1-c1ccccc1 [III-135, (6-Oxo-5-phenyl-5,6-dihydro-1H-pyrazolo[4,3-c]pyridazin-3-yl)-(2-phenyl-quinazolin-4-yl)-amine]
> 7.00	COC(=O)c1ccc2[nH]nc(Nc3nc(-c4ccccc4C(F)(F)F)nc4ccccc34)c2c1 [II-125, 3-[2-(2-Trifluoromethyl-phenyl)-quinazolin-4-ylamino]-1H-indazole-5-carboxylic acid methyl ester]
> 7.00	Fc1cc(F)c2[nH]nc(Nc3nc(-c4ccccc4C(F)(F)F)nc4c3CCC4)c2c1 [II-115, (5,7-Difluoro-1H-indazol-3-yl)-[2-(2-trifluoromethyl-phenyl)-6,7-dihydro-5H-cyclopentapyrimidin-4-yl]-amine]
6.00 to 7.00	O=c1cc2[nH]nc(Nc3nc(-c4ccccc4C(F)(F)F)nc4ccccc34)c2nn1-c1ccccc1 [II-101, (6-Oxo-5-phenyl-5,6-dihydro-1H-pyrazolo[4,3-c]pyridazin-3-yl)-[2-(2-trifluoromethyl-phenyl)-quinazolin-4-yl]-amine]
> 7.00	Fc1ccc2[nH]nc(Nc3nc(-c4c(Cl)cccc4Cl)nc4ccccc34)c2c1 [II-62, [2-(2,6-Dichloro-phenyl)-quinazolin-4-yl]-(5-fluoro-1H-indazol-3-yl)-amine]
6.00 to 7.00	Cc1cc(Nc2nc(-c3ccncc3)nc3ccc(Cl)cc23)[nH]n1 [III-29, (6-Chloro-2-pyridin-4-yl-quinazolin-4-yl)-(5-methyl-2H-pyrazol-3-yl)-amine]
6.00 to 7.00	Fc1ccc2[nH]nc(Nc3nc(-c4ccccc4)nc4c3CNCC4)c2c1 [IV-36, (5-Fluoro-1H-indazol-3-yl)-(2-phenyl-5,6,7,8-tetrahydro-pyrido[4,3-d]pyrimidin-4-yl)-amine]
> 7.00	Cc1nc(-c2ccccc2Cl)nc(Nc2n[nH]c3ccccc23)c1C [II-26, [2-(2-Chlorophenyl)-5,6-dimethyl-pyrimidin-4-yl]-(1H-indazol-3-yl)-amine]
4.70 to 6.00	CN1CCN(C(=O)c2cc(Nc3nc(-c4ccccc4)nc4ccccc34)[nH]n2)CC1 [III-98, [5-(1-Methylpiperazine-4-carbonyl)-2H-pyrazol-3-yl]-(2-phenyl-quinazolin-4-yl)-amine]
> 7.00	Clc1ccccc1-c1nc(Nc2n[nH]c3ccccc23)c2cccnc2n1 [II-110, [2-(2-Chloro-phenyl)-pyrido[2,3-d]pyrimidin-4-yl]-(1H-indazol-3-yl)-amine]
> 7.00	Fc1ccc2[nH]nc(Nc3nc(-c4ccccc4C(F)(F)F)nc4c3CCCC4)c2c1 [II-8, (5-Fluoro-1H-indazol-3-yl)-[2-(2-trifluoromethyl-phenyl)-5,6,7,8-tetrahydroquinazolin-4-yl]-amine]
> 7.00	Clc1ccccc1-c1nc2c(c(Nc3n[nH]c4ccccc34)n1)CCCCC2 [II-2, [2-(2-Chloro-phenyl)-6,7,8,9-tetrahydro-5H-cycloheptapyrimidin-4-yl]-(1H-indazol-3-yl)-amine]
6.00 to 7.00	Cc1nc(Nc2nc(-c3ccccc3C(F)(F)F)nc3ccccc23)n[nH]1 [IX-38, (5-Methyl-2H-[1,2,4]triazol-3-yl)-[2-(2-trifluoromethylphenyl)-quinazolin-4-yl]-amine]
> 7.00	Fc1cc(F)c2[nH]nc(Nc3nc(-c4ccccc4C(F)(F)F)nc4ncccc34)c2c1 [II-109, (5,7-Difluoro-1H-indazol-3-yl)-[2-(2-trifluoromethyl-phenyl)-pyrido[2,3-d]pyrimidin-4-yl]-amine]
> 7.00	Fc1cc(F)c2[nH]nc(Nc3nc(-c4ccccc4C(F)(F)F)nc4c3CCCCCC4)c2c1 [II-121, (5,7-Difluoro-1H-indazol-3-yl)-[2-(2-trifluoromethyl-phenyl)-5,6,7,8,9,10-hexahydro-cyclooctapyrimidin-4-yl]-amine]
4.70 to 6.00	CNC(=O)c1cc(Nc2nc(-c3ccccc3)nc3ccccc23)[nH]n1 [III-96, (5-Methylcarbamoyl-2H-pyrazol-3-yl)-(2-phenyl-quinazolin-4-yl)-amine]
> 7.00	Fc1ccc2[nH]nc(Nc3nc(-c4ccccc4Cl)nc4c3CCC4)c2c1 [II-112, [2-(2-Chloro-phenyl)-6,7-dihydro-5H-cyclopentapyrimidin-4-yl]-(5-fluoro-1H-indazol-3-yl)-amine]
6.00 to 7.00	COC(=O)c1cc(Nc2nc(N3CCCCC3)nc3ccccc23)[nH]n1 [III-122, (5-Methoxycarbonyl-2H-pyrazol-3-yl)-[2-(piperidine-1-yl)-quinazolin-4-yl]-amine]
